According to the NIST ThermoML archive (doi:10.1021/je400332j):
Numbers after ± are expanded uncertainties.

Tests used:
[1] = 101.33 kPa, Liquid; for viscosity: Concentric cylinders viscometry; for mass density: Vibrating tube method
[2] = xn = mol fraction of the nth substance listed; settings: 101 kPa, Liquid; for viscosity: Concentric cylinders viscometry; for mass density: Vibrating tube method

CCn1cc[n+](C)c1.F[B-](F)(F)F [1-ethyl-3-methylimidazolium tetrafluoroborate]
[1]
Settings	mass density [kg/m3]	viscosity [mPa·s]
293.15 K	1283.9 ± 1.1	45.47 ± 3.7
298.15 K	1280 ± 1.1	37.46 ± 3
303.15 K	1276.2 ± 1.1	31.29 ± 2.5
308.15 K	1272.4 ± 1.1	26.45 ± 2.1
313.15 K	1268.6 ± 1.1	22.61 ± 1.8
318.15 K	1264.9 ± 1.1	19.51 ± 1.6
323.15 K	1261.2 ± 1.1	17 ± 1.4
328.15 K	1257.4 ± 1.1	14.92 ± 1.2
333.15 K	1253.8 ± 1.1	13.2 ± 1.1
338.15 K	1250.1 ± 1.1	11.76 ± 0.94
343.15 K	1246.5 ± 1.1	10.54 ± 0.85

CCn1cc[n+](C)c1.F[B-](F)(F)F [1-ethyl-3-methylimidazolium tetrafluoroborate] + CCCCCCn1cc[n+](C)c1.F[B-](F)(F)F
[2], x1 = 1
Settings	mass density [kg/m3]	viscosity [mPa·s]
293.15 K	1283.9 ± 1.1	45.47 ± 3.7
298.15 K	1280 ± 1.1	37.46 ± 3
303.15 K	1276.2 ± 1.1	31.29 ± 2.5
308.15 K	1272.4 ± 1.1	26.45 ± 2.1
313.15 K	1268.6 ± 1.1	22.61 ± 1.8
318.15 K	1264.9 ± 1.1	19.51 ± 1.6
323.15 K	1261.2 ± 1.1	17 ± 1.4
328.15 K	1257.4 ± 1.1	14.92 ± 1.2
333.15 K	1253.8 ± 1.1	13.2 ± 1.1
338.15 K	1250.1 ± 1.1	11.76 ± 0.94
343.15 K	1246.5 ± 1.1	10.54 ± 0.85

CCn1cc[n+](C)c1.F[B-](F)(F)F [1-ethyl-3-methylimidazolium tetrafluoroborate] + CCCn1cc[n+](C)c1.F[B-](F)(F)F
[2], x1 = 1
Settings	mass density [kg/m3]	viscosity [mPa·s]
293.15 K	1283.9 ± 1.1	45.47 ± 3.7
298.15 K	1280 ± 1.1	37.46 ± 3
303.15 K	1276.2 ± 1.1	31.29 ± 2.5
308.15 K	1272.4 ± 1.1	26.45 ± 2.1
313.15 K	1268.6 ± 1.1	22.61 ± 1.8
318.15 K	1264.9 ± 1.1	19.51 ± 1.6
323.15 K	1261.2 ± 1.1	17 ± 1.4
328.15 K	1257.4 ± 1.1	14.92 ± 1.2
333.15 K	1253.8 ± 1.1	13.2 ± 1.1
338.15 K	1250.1 ± 1.1	11.76 ± 0.94
343.15 K	1246.5 ± 1.1	10.54 ± 0.85

CCCCCCn1cc[n+](C)c1.F[B-](F)(F)F [1-hexyl-3-methylimidazolium tetrafluoroborate]
[1]
Settings	mass density [kg/m3]	viscosity [mPa·s]
293.15 K	1147.5 ± 1.1	280.4 ± 23
298.15 K	1144.1 ± 1.1	206.3 ± 17
303.15 K	1140.6 ± 1.1	154.9 ± 13
308.15 K	1137.2 ± 1	118.7 ± 9.7
313.15 K	1133.7 ± 1	92.56 ± 7.5
318.15 K	1130.3 ± 1	73.37 ± 5.9
323.15 K	1127 ± 1	59.03 ± 4.8
328.15 K	1123.6 ± 1	48.16 ± 3.9
333.15 K	1120.2 ± 1	39.71 ± 3.2
338.15 K	1116.8 ± 1	33.21 ± 2.7
343.15 K	1113.4 ± 1	28.03 ± 2.3

CCCCCCn1cc[n+](C)c1.F[B-](F)(F)F [1-hexyl-3-methylimidazolium tetrafluoroborate] + CCCn1cc[n+](C)c1.F[B-](F)(F)F
[2], x2 = 0
Settings	mass density [kg/m3]	viscosity [mPa·s]
293.15 K	1147.5 ± 1.1	280.4 ± 23
298.15 K	1144.1 ± 1.1	206.3 ± 17
303.15 K	1140.6 ± 1	154.9 ± 13
308.15 K	1137.2 ± 1	118.7 ± 9.7
313.15 K	1133.7 ± 1	92.56 ± 7.5
318.15 K	1130.3 ± 1	73.37 ± 5.9
323.15 K	1127 ± 1	59.03 ± 4.8
328.15 K	1123.6 ± 1	48.16 ± 3.9
333.15 K	1120.2 ± 1	39.71 ± 3.2
338.15 K	1116.8 ± 1	33.21 ± 2.7
343.15 K	1113.4 ± 1	28.03 ± 2.3

CCCn1cc[n+](C)c1.F[B-](F)(F)F [1-propyl-3-methylimidazolium tetrafluoroborate]
[1]
Settings	mass density [kg/m3]	viscosity [mPa·s]
293.15 K	1239.3 ± 1.1	95.44 ± 7.7
298.15 K	1235.7 ± 1.1	74.04 ± 6
303.15 K	1232 ± 1.1	58.59 ± 4.7
308.15 K	1228.3 ± 1.1	47.16 ± 3.8
313.15 K	1224.7 ± 1.1	38.56 ± 3.1
318.15 K	1221 ± 1.1	31.98 ± 2.6
323.15 K	1217.4 ± 1.1	26.83 ± 2.2
328.15 K	1213.8 ± 1.1	22.77 ± 1.8
333.15 K	1210.2 ± 1.1	19.54 ± 1.6
338.15 K	1206.6 ± 1.1	16.92 ± 1.4
343.15 K	1203 ± 1.1	14.77 ± 1.2
